The test system of test [1] is ENR+CD organoids (ISC to Paneth cell differentiation). The test is described as follows: Primary screen: basal (non-stimulated) lysozyme secretion LYZ.NS, 2.5-D 384-well ENR+CD organoid differentiation. Format: cell-based, mouse. To be noted: primary screen; for Z.LYZ.NS: standard z score. An excerpt: (§1) High-throughput screening.
The test system of the next test is ENR+CD organoids. The test is described as follows: Primary screen: ATP (CellTiter-Glo 3D, CTG) cell number/viability, 2.5-D 384-well ENR+CD organoids.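 On all read-outs here: compounds given at plating and again on day 3 over a 6-day differentiation from ENR+CV stem-cell-enriched precursors, ATP measured on day 6, plate median as control.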 The following applies: primary screen; for Z.CTG: standard z score.
Test [2] concerns ENR+CD organoids (ISC to Paneth cell differentiation). The test is described as follows: Primary screen: CCh-stimulated lysozyme secretion LYZ.S, 2.5-D 384-well ENR+CD organoid differentiation. Format: cell-based, mouse. The following applies: primary screen.
Description: as §1

The mark [3] stands for this setting: dose 0.08 uM, FC relative to plate median.
Setting [4] is: dose 0.40 uM, FC relative to plate median.
[5] abbreviates: dose 2.00 uM, FC relative to plate median.
[6] abbreviates: dose 10.00 uM, FC relative to plate median.
Setting [7] is: dose 0.08 uM, FC vs plate median.
Where [8] appears, read: dose 0.40 uM, FC vs plate median.
Setting [9] is: dose 2.00 uM, FC vs plate median.
The mark [10] stands for this setting: dose 10.00 uM, FC vs plate median.

Structures can show the parent of a compound that is named as a salt.

Regarding `C[C@H](NC(=O)Cc1cc(F)cc(F)c1)C(=O)N[C@@H]1C(=O)N(C)c2ccccc2-c2ccccc21` [YO-01027], the Dose.FC.LYZ.NS in test [1] (dose 0.08 uM) was 0.051 log2 fold change; in test [1] (dose 0.40 uM), 0.085 log2 fold change; in test [1] (dose 2.00 uM) it was −0.080 log2 fold change; in test [1] (dose 10.00 uM), −0.157 log2 fold change. The “Z.LYZ.NS (standard z score)” value in test [1] (dose 0.08 uM) is reported as 0.443; in test [1] (dose 0.40 uM) it was 0.739; in test [1] (dose 2.00 uM) it was −0.699; in test [1] (dose 10.00 uM), −1.369. The Dose.FC.CTG is 0.221 log2 fold change in the test on ENR+CD organoids (dose 0.08 uM), −0.475 log2 fold change with ENR+CD organoids (dose 0.40 uM), −0.571 log2 fold change in the test on ENR+CD organoids (dose 2.00 uM) and −1.032 log2 fold change in the test on ENR+CD organoids (dose 10.00 uM). Also, the “Z.CTG (standard z score)” value is reported as 0.528 with ENR+CD organoids (dose 0.08 uM), −1.135 in the test with ENR+CD organoids (dose 0.40 uM), −1.363 in the test on ENR+CD organoids (dose 2.00 uM) and −2.464 in the test on ENR+CD organoids (dose 10.00 uM). Also, the Dose.FC.LYZ.S in test [2] (dose 0.08 uM) is 0.105 log2 fold change; in test [2] (dose 0.40 uM) it was −0.058 log2 fold change; in test [2] (dose 2.00 uM) it was −0.020 log2 fold change; in test [2] (dose 10.00 uM) it was −0.184 log2 fold change.

Turning to `CCn1c(-c2nonc2N)nc2c(C#CC(C)(C)O)ncc(OC[C@H]3CCCNC3)c21` [GSK690693], the “Dose.FC.LYZ.NS (log2 fold change)” value in test [1] (dose 0.08 uM) is 0.045; in test [1] (dose 0.40 uM) it was 0.047; in test [1] (dose 2.00 uM), 0.122; in test [1] (dose 10.00 uM), −0.080. Moreover, the “Z.LYZ.NS (standard z score)” value in test [1] (dose 0.08 uM) is recorded as 0.388; in test [1] (dose 0.40 uM) it was 0.409; in test [1] (dose 2.00 uM) it was 1.060; in test [1] (dose 10.00 uM) it was −0.698. Moreover, the “Dose.FC.CTG (log2 fold change)” value in the test with ENR+CD organoids (dose 0.08 uM) is reported as 0.129; in the test with ENR+CD organoids (dose 0.40 uM), 0.197; in the test on ENR+CD organoids (dose 2.00 uM), −0.027; in the test on ENR+CD organoids (dose 10.00 uM) it was −0.182. The “Z.CTG (standard z score)” value with ENR+CD organoids (dose 0.08 uM) is on record as 0.308; with ENR+CD organoids (dose 0.40 uM), 0.470; in the test with ENR+CD organoids (dose 2.00 uM), −0.064; in the test on ENR+CD organoids (dose 10.00 uM), −0.434. Moreover, the “Dose.FC.LYZ.S (log2 fold change)” value is 0.019 in test [2] (dose 0.08 uM), 0.155 in test [2] (dose 0.40 uM), 0.124 in test [2] (dose 2.00 uM) and −0.153 in test [2] (dose 10.00 uM).

Consider `CCOC(=O)c1ccc(N2NC(=O)/C(=C/c3ccc([N+](=O)[O-])o3)C2=O)cc1` [PYR-41], for which the Dose.FC.LYZ.NS stood at 0.150 log2 fold change in test [1] (setting [3]), 0.089 log2 fold change in test [1] (setting [4]), 0.065 log2 fold change in test [1] (setting [5]) and 0.099 log2 fold change in test [1] (setting [6]). Also, the Z.LYZ.NS was determined as 1.305 in test [1] (dose 0.08 uM), 0.777 in test [1] (dose 0.40 uM), 0.568 in test [1] (dose 2.00 uM) and 0.861 in test [1] (dose 10.00 uM). The Dose.FC.CTG is listed as 0.255 log2 fold change in the test on ENR+CD organoids (setting [3]), 0.319 log2 fold change with ENR+CD organoids (setting [4]), 0.161 log2 fold change in the test on ENR+CD organoids (setting [5]) and 0.096 log2 fold change with ENR+CD organoids (setting [6]). Moreover, the Z.CTG in the test on ENR+CD organoids (dose 0.08 uM) turned out to be 0.609; with ENR+CD organoids (dose 0.40 uM) it was 0.762; in the test on ENR+CD organoids (dose 2.00 uM), 0.385; with ENR+CD organoids (dose 10.00 uM), 0.229. The Dose.FC.LYZ.S in test [2] (setting [3]) worked out at 0.193 log2 fold change; in test [2] (setting [4]), 0.076 log2 fold change; in test [2] (setting [5]) it was 0.049 log2 fold change; in test [2] (setting [6]) it was 0.129 log2 fold change.

Turning to `CNCc1ccc(-c2cc(-c3nc(-c4ccc(S(=O)(=O)C(C)C)cc4)cnc3N)on2)cc1` [VE-822], the Dose.FC.LYZ.NS in test [1] (dose 0.08 uM) is recorded as 0.058 log2 fold change; in test [1] (dose 0.40 uM) it was −0.040 log2 fold change; in test [1] (dose 2.00 uM), −0.220 log2 fold change; in test [1] (dose 10.00 uM), −0.210 log2 fold change. In addition, the “Z.LYZ.NS (standard z score)” value in test [1] (dose 0.08 uM) is given as 0.505; in test [1] (dose 0.40 uM) it was −0.351; in test [1] (dose 2.00 uM), −1.913; in test [1] (dose 10.00 uM) it was −1.825. Besides, the Dose.FC.CTG in the test with ENR+CD organoids (dose 0.08 uM) was −0.147 log2 fold change; in the test on ENR+CD organoids (dose 0.40 uM), −0.287 log2 fold change; with ENR+CD organoids (dose 2.00 uM) it was −0.717 log2 fold change; with ENR+CD organoids (dose 10.00 uM), −1.763 log2 fold change. Moreover, the Dose.FC.LYZ.S is recorded as 0.104 log2 fold change in test [2] (dose 0.08 uM), −0.064 log2 fold change in test [2] (dose 0.40 uM), −0.302 log2 fold change in test [2] (dose 2.00 uM) and −0.321 log2 fold change in test [2] (dose 10.00 uM).

In the case of `CC12CC3CC(C)(C1)CC(N)(C3)C2` [Memantine HCl], the “Dose.FC.LYZ.NS (log2 fold change)” value in test [1] (dose 0.08 uM) is 0.069; in test [1] (dose 0.40 uM) it was 0.004; in test [1] (dose 2.00 uM) it was 0.106; in test [1] (dose 10.00 uM) it was −0.047. For the same compound, the “Z.LYZ.NS (standard z score)” value in test [1] (dose 0.08 uM) is on record as 0.598; in test [1] (dose 0.40 uM), 0.032; in test [1] (dose 2.00 uM) it was 0.919; in test [1] (dose 10.00 uM), −0.411. Moreover, the “Dose.FC.CTG (log2 fold change)” value with ENR+CD organoids (dose 0.08 uM) was 0.083; in the test with ENR+CD organoids (dose 0.40 uM) it was 0.072; in the test on ENR+CD organoids (dose 2.00 uM), −0.007; in the test with ENR+CD organoids (dose 10.00 uM), 0.077. Moreover, the “Dose.FC.LYZ.S (log2 fold change)” value is 0.091 in test [2] (dose 0.08 uM), 0.017 in test [2] (dose 0.40 uM), 0.051 in test [2] (dose 2.00 uM) and −0.021 in test [2] (dose 10.00 uM).

In the case of `O=c1oc2cc(O)ccc2s1` [Tioxolone], the Dose.FC.LYZ.NS in test [1] (dose 0.08 uM) turned out to be 0.099 log2 fold change; in test [1] (dose 0.40 uM), 0.012 log2 fold change; in test [1] (dose 2.00 uM), 0.053 log2 fold change; in test [1] (dose 10.00 uM) it was 0.023 log2 fold change. For the same compound, the “Z.LYZ.NS (standard z score)” value amounted to 0.864 in test [1] (dose 0.08 uM), 0.101 in test [1] (dose 0.40 uM), 0.462 in test [1] (dose 2.00 uM) and 0.202 in test [1] (dose 10.00 uM). Also, the Dose.FC.CTG was 0.246 log2 fold change in the test with ENR+CD organoids (dose 0.08 uM), 0.089 log2 fold change in the test on ENR+CD organoids (dose 0.40 uM), 0.044 log2 fold change with ENR+CD organoids (dose 2.00 uM) and 0.328 log2 fold change with ENR+CD organoids (dose 10.00 uM). Also, the Dose.FC.LYZ.S stood at 0.149 log2 fold change in test [2] (dose 0.08 uM), 0.000 log2 fold change in test [2] (dose 0.40 uM), 0.023 log2 fold change in test [2] (dose 2.00 uM) and 0.028 log2 fold change in test [2] (dose 10.00 uM).

In the case of `Cc1[nH]c2ccccc2c1CCNCc1ccc(/C=C/C(=O)NO)cc1` [Panobinostat (LBH589)], the Z.LYZ.NS in test [1] (dose 0.08 uM) is recorded as 0.014; in test [1] (dose 0.40 uM) it was −0.232; in test [1] (dose 2.00 uM), −1.329; in test [1] (dose 10.00 uM), −1.891. Besides, the Dose.FC.LYZ.NS is recorded as 0.002 log2 fold change in test [1] (setting [7]), −0.027 log2 fold change in test [1] (setting [8]), −0.153 log2 fold change in test [1] (setting [9]) and −0.217 log2 fold change in test [1] (setting [10]). Besides, the Z.CTG in the test on ENR+CD organoids (dose 0.08 uM) is 0.706; with ENR+CD organoids (dose 0.40 uM), 0.506; in the test on ENR+CD organoids (dose 2.00 uM), −1.283; with ENR+CD organoids (dose 10.00 uM), −2.395. In addition, the Dose.FC.CTG was 0.295 log2 fold change in the test with ENR+CD organoids (setting [7]), 0.212 log2 fold change in the test on ENR+CD organoids (setting [8]), −0.537 log2 fold change in the test with ENR+CD organoids (setting [9]) and −1.003 log2 fold change in the test on ENR+CD organoids (setting [10]). Moreover, the Dose.FC.LYZ.S in test [2] (setting [7]) is listed as −0.034 log2 fold change; in test [2] (setting [8]), −0.042 log2 fold change; in test [2] (setting [9]), −0.285 log2 fold change; in test [2] (setting [10]), −0.320 log2 fold change.

For the compound `CC[C@@H]1/C=C/C=C/C[C@H](C)[C@H](O)[C@](C)(O)C(=O)[C@H](C)[C@@H](O)[C@H](C)C(=O)[C@H](C)[C@@H](O)[C@H](C)/C=C/C(=O)O[C@H]2[C@@H](C)[C@@H](CC1)O[C@@]1(CC[C@@H](C)[C@@H](C[C@H](C)O)O1)[C@@H]2C` [Oligomycin A], the Z.LYZ.NS was −1.778 in test [1] (dose 0.08 uM), −2.013 in test [1] (dose 0.40 uM), −1.857 in test [1] (dose 2.00 uM) and −1.943 in test [1] (dose 10.00 uM). Moreover, the Dose.FC.LYZ.NS in test [1] (setting [7]) was −0.204 log2 fold change; in test [1] (setting [8]), −0.231 log2 fold change; in test [1] (setting [9]) it was −0.213 log2 fold change; in test [1] (setting [10]), −0.223 log2 fold change. Moreover, the Z.CTG in the test on ENR+CD organoids (dose 0.08 uM) is on record as −1.581; in the test on ENR+CD organoids (dose 0.40 uM), −1.685; in the test on ENR+CD organoids (dose 2.00 uM) it was −2.261; with ENR+CD organoids (dose 10.00 uM), −2.972. The Dose.FC.CTG in the test on ENR+CD organoids (setting [7]) was −0.662 log2 fold change; in the test on ENR+CD organoids (setting [8]), −0.706 log2 fold change; in the test on ENR+CD organoids (setting [9]), −0.946 log2 fold change; in the test with ENR+CD organoids (setting [10]) it was −1.244 log2 fold change. For the same compound, the Dose.FC.LYZ.S in test [2] (setting [7]) was −0.243 log2 fold change; in test [2] (setting [8]), −0.274 log2 fold change; in test [2] (setting [9]), −0.269 log2 fold change; in test [2] (setting [10]) it was −0.288 log2 fold change.

The values are drawn from patent publication US20220323406A1, “METHODS AND COMPOSITIONS FOR DIFFERENTIATING STEM CELLS” (Massachusetts Institute of Technology, priority 2019, published 2022).
